The structures appear in SMILES notation. Several values for one entry are separate records, joined by “and”; a condition that tells them apart may be missing. Equal values may be shown once.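 Values below derive from 48-hour exposures of cells grown in 96-well plates, with endpoints linearly interpolated between the two concentrations bracketing the appropriate inhibition level. GI50: concentration for 50% inhibition of growth. The concentration for full growth arrest is given as TGI.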 A value given as a limit tells only on which side of the number the result lay.

The subject of one test is SNB-75 CNS. Description: DTP human tumour cell line panel, 48 h.
The GI50 is the concentration giving 50% growth inhibition. For orientation: TGI means the concentration at which net growth stops. In the case of `COc1ccc(-c2ccc(-c3ccc(C(=N)N)s3)s2)cc1`, the GI50 is 1.39 µM and the total growth inhibition concentration (TGI) came to 2.91 µM.

In turn, `COC(=O)/C=C/c1c(CC=C(C)C)ncn1C` displayed a TGI of 56 µM.

`OCc1ccn2c1[C@@H](O)CC2` registered a TGI above 100 µM.

Regarding `Cc1[nH]c(/C=C2\C(=O)Nc3ccccc32)c(C)c1CCC(=O)O`, the TGI was 56.1 µM and 59.8 µM.

For `c1ccc2c(c1)c1c(c3ccccc32)CN2CCCC2C1` (stereo unspecified), the TGI came to 35.3 µM.

As to `O=S(=O)(c1ccccc1)C1CN2OC1(S(=O)(=O)c1ccccc1)CC2c1ccc(Br)cc1` (stereo unspecified), the TGI stood at 22.1 µM.

With `O=C(c1ccc(/C=C/c2n[nH]c3ccccc23)cc1)N1CCNCC1`, the GI50 is 3.81 µM and 2.37 µM; the TGI is > 10 µM and 9.14 µM.

With `CCOC(=O)c1c(NC(=O)c2cccc(C(F)(F)F)c2)sc2c(CN(C)C)c(O)ccc12`, the GI50 was 11.1 µM and the total growth inhibition concentration (TGI) is 26.8 µM.

Turning to `O=C(Nc1ccc(-n2ccc3c(NC(=O)c4ccccc4)nccc32)cc1)Nc1ccc(Cl)c(Cl)c1`, the GI50 is 0.489 µM and the TGI is 2.34 µM.

The next test concerns OVCAR-4 ovarian. Description: DTP human tumour cell line panel, 48 h.
As to `O=C1NC(=O)/C(=C\c2ccccc2)C2=C1CCCC2`, the GI50 is 14.8 µM and the TGI amounted to 29.2 µM.

For `CN(CCO)c1ccc(N2Cc3ccccc3OC3=C2C(=O)c2c(O)ccc(O)c2C3=O)cn1`, the GI50 was 0.173 µM and the TGI came to 0.343 µM.

As for `CC[C@H]1CN2CCc3cc(OC)c(OC)cc3[C@@H]2C[C@@H]1C[C@H]1NCCc2c1[nH]c1ccc(O)cc21`, the GI50 was 0.0138 µM; the TGI was 0.0443 µM and 0.0436 µM and < 0.0124 µM.

For the compound `CCCCCOc1ccc(/C=N/Nc2cc(C)nc3ccc(Br)cc23)cc1`, the GI50 was 1.76 µM and the total growth inhibition concentration (TGI) amounted to 3.27 µM.

For `CC(=O)Oc1ccccc1C(=O)Nc1ncc([N+](=O)[O-])s1`, the GI50 was 2.05 µM; the concentration for total growth inhibition (TGI) was 13.8 µM and > 100 µM.

With `CCN(Cc1ccccc1C)c1ccc(CO)c(Cl)c1`, the GI50 was 1.26 µM and the total growth inhibition concentration (TGI) worked out at 11.8 µM.

Compound `O=C(O)CC(NC(=O)CP(=O)(O)O)C(=O)O` (stereo unspecified) displayed a TGI above 10000 µM.

On to `Cn1cc(C2=C(c3cccc(Br)c3)C(=O)NC2=O)c2ccccc21`, for which the GI50 is 12.6 µM and the TGI was above 25 µM.

As to `COc1ccc(-c2ccc(-c3ccc(C(=N)N)s3)s2)cc1`, the GI50 is 0.187 µM and the concentration for total growth inhibition (TGI) came to 0.399 µM.

As to `COC(=O)/C=C/c1c(CC=C(C)C)ncn1C`, the total growth inhibition concentration (TGI) is above 100 µM.

In turn, `OCc1ccn2c1[C@@H](O)CC2` yielded a total growth inhibition concentration (TGI) above 100 µM.

As for `Cc1[nH]c(/C=C2\C(=O)Nc3ccccc32)c(C)c1CCC(=O)O`, the TGI is above 100 µM.

As to `c1ccc2c(c1)c1c(c3ccccc32)CN2CCCC2C1` (stereo unspecified), the TGI is above 100 µM.

In the case of `O=S(=O)(c1ccccc1)C1CN2OC1(S(=O)(=O)c1ccccc1)CC2c1ccc(Br)cc1` (stereo unspecified), the TGI was above 100 µM.

As to `O=C(c1ccc(/C=C/c2n[nH]c3ccccc23)cc1)N1CCNCC1`, the GI50 was > 10 µM and 3.82 µM; the TGI was > 10 µM and 26 µM.

Regarding `CCOC(=O)c1c(NC(=O)c2cccc(C(F)(F)F)c2)sc2c(CN(C)C)c(O)ccc12`, the GI50 was 9.85 µM and the total growth inhibition concentration (TGI) was determined as 21.5 µM.

Consider `O=C(Nc1ccc(-n2ccc3c(NC(=O)c4ccccc4)nccc32)cc1)Nc1ccc(Cl)c(Cl)c1`, for which the GI50 is 1.55 µM and the total growth inhibition concentration (TGI) was found to be 3.86 µM.

In the next test the test system is HOP-92 NSCLC. Description: DTP human tumour cell line panel, 48 h.
Turning to `O=C1NC(=O)/C(=C\c2ccccc2)C2=C1CCCC2`, the GI50 is 15.9 µM and the total growth inhibition concentration (TGI) was 38.2 µM.

For `CN(CCO)c1ccc(N2Cc3ccccc3OC3=C2C(=O)c2c(O)ccc(O)c2C3=O)cn1`, the 50% growth inhibitory concentration (GI50) is 0.223 µM and the TGI stood at 0.505 µM.

As for `CC[C@H]1CN2CCc3cc(OC)c(OC)cc3[C@@H]2C[C@@H]1C[C@H]1NCCc2c1[nH]c1ccc(O)cc21`, the GI50 was 0.0183 µM and 0.0337 µM.

For `CCCCCOc1ccc(/C=N/Nc2cc(C)nc3ccc(Br)cc23)cc1`, the GI50 was 1.36 µM and the TGI stood at 2.88 µM.

`CC(=O)Oc1ccccc1C(=O)Nc1ncc([N+](=O)[O-])s1`: the GI50 was 0.227 µM; the TGI is 0.966 µM and 8.1 µM.

Regarding `CCN(Cc1ccccc1C)c1ccc(CO)c(Cl)c1`, the GI50 is 1.83 µM and the TGI came to 9.14 µM.

Take `O=C(O)CC(NC(=O)CP(=O)(O)O)C(=O)O` (stereo unspecified): the TGI is 2380 µM.

In the case of `Cn1cc(C2=C(c3cccc(Br)c3)C(=O)NC2=O)c2ccccc21`, the GI50 was 8.62 µM and the concentration for total growth inhibition (TGI) was above 25 µM.

For the compound `COc1ccc(-c2ccc(-c3ccc(C(=N)N)s3)s2)cc1`, the GI50 is 1.16 µM and the TGI came out at 2.71 µM.

In the case of `COC(=O)/C=C/c1c(CC=C(C)C)ncn1C`, the TGI is above 100 µM.

Compound `OCc1ccn2c1[C@@H](O)CC2` showed a TGI above 100 µM.

As to `Cc1[nH]c(/C=C2\C(=O)Nc3ccccc32)c(C)c1CCC(=O)O`, the GI50 is 12.7 µM; the concentration for total growth inhibition (TGI) was 43.2 µM and 62.8 µM.

Consider `c1ccc2c(c1)c1c(c3ccccc32)CN2CCCC2C1` (stereo unspecified), for which the total growth inhibition concentration (TGI) is 13.4 µM.

Compound `O=S(=O)(c1ccccc1)C1CN2OC1(S(=O)(=O)c1ccccc1)CC2c1ccc(Br)cc1` (stereo unspecified) showed a TGI above 100 µM.

Regarding `O=C(c1ccc(/C=C/c2n[nH]c3ccccc23)cc1)N1CCNCC1`, the GI50 was 2.71 µM and 1.89 µM; the TGI is > 10 µM and 7.63 µM.

Turning to `CCOC(=O)c1c(NC(=O)c2cccc(C(F)(F)F)c2)sc2c(CN(C)C)c(O)ccc12`, the GI50 is 2.76 µM and the TGI stood at 15.2 µM.

In the case of `O=C(Nc1ccc(-n2ccc3c(NC(=O)c4ccccc4)nccc32)cc1)Nc1ccc(Cl)c(Cl)c1`, the GI50 was 1.23 µM and the total growth inhibition concentration (TGI) amounted to 4.61 µM.

The subject of a further test is SNB-19 CNS. Description: DTP human tumour cell line panel, 48 h.
For the compound `O=C1NC(=O)/C(=C\c2ccccc2)C2=C1CCCC2`, the GI50 was 10.3 µM and the total growth inhibition concentration (TGI) came out at 22.1 µM.

Source of the values: PubChem BioAssay (NCI).
